Experiments:
[1] = tested on: bone marrow-derived macrophages from wild-type mice; experiment: Cytokine secretion assay (ELISA), bone marrow-derived macrophages from wild-type mice; format: cell-based, mouse; conditions: 12 hr; for secretion of IL-6 / secretion of TNF-α: 100 ng/ml
Method: (§1) A), B), C) 3×10^5 bone marrow-derived macrophages from wild-type littermates (wt) and nod1-deficient mice were stimulated with 100 ng/ml of iE-DAP, MDP or dsRNA for 12 hr A), B). 0, 100 ng/ml Salmonella typhimurium LPS was used in the presence of 0, 1, 1000 ng/ml iE-DAP or 0, 0.1 1 μM immunostimulatory CpG as indicated for 12 hr C) The concentration of TNF-α (a) and IL-6 (b,c) were determined by ELISA using specific antibodies. Values represent the mean of normalized data±S.D. of triplicate cultures.
Reagents. LPS from S. typhimurium, intact and alkaline-detoxified LPS from E. coli O55:B5 as well as purified lipid A preparations of E. coli F583, MDP, DAP and dsRNA were obtained from Sigma-Aldrich (St. Louis, Mo.). PGN from S. aureus was from Fluka-Chemie (Buchs, Germany). Palmitoyl-Cys ((RS)-2,3-di(palmitoyloxy)-propyl)-Ala-Gly) (sBLP), was obtained from Bachem (Torrance, Calif.). The tetrameric form of the disaccharide dipeptide was described previously (Inohara et al., J. Biol. Chem. 278:5509 [2003]). iE-DAP and iQ-DAP, M3P and M4P were synthesized as described (Kitaura et al., J. Med. Chem. 25:335 [1982]) with small modification. Purification of PGN from B. subtilis 168 and C. flaccumfaciens with hydrolases, Cellosyl or recombinant AtlE (amidase domain) and the fractionation and purification of reduced B. subtilis PGN digested with Cellosyl were performed as previously described (Heilman et al., Mol. Microbiol. 24:1013 [1997]; Atrih et al., J. Bact. 181:3956 [1999]). Removal of proteins and reduction of LPS fraction. E. coli O55:B5 LPS (Sigma) was treated with proteinase K at 37° C. for 12 hr to digest contaminating proteins. To eliminate lipoproteins, LPS was subjected to modified phenol extraction with deoxycholate-containing phenol as described (Hirschfeld et al., J. Immunol. 165:618 [2000]). For reduction of carboxyl group in the LPS, the LPS was treated with 1-ethyl-3-(3-dimethylaminopropyl) carbodiimide and then reduced with NaBH4 as described (Taylor et al., Biochemistry 11:1383 [1972]). Preparation of E. coli extract. E. coli K-12 mutants were all based on the SØ864 genetic background (lacZ trp upp relA rpsL) (Neuhard and Thomassen, J. Bacteriol. 126:999). SØ874 carries a large chromosomal deletion removing the gene clusters for the biosynthesis of CA capsule and O-antigen. CLM5 is a derivative of SØ874 with a transposon insertion in the wecC gene that blocks the synthesis of ECA (Marolda et al., J. Bacteriol. 177:5539[1995]). FAM5 is a derivative of SØ874 carrying a deletion that eliminates the incorporation of heptose in the LPS core. Extracts were prepared from all of these E. coli K-12 strains and also from another E. coli K-12 strain, LCD27 YA21-6 (Obtained from Dr. Arisaka, Tokyo Institute of Technology). Bacteria were cultured overnight at 37° C. in Luria broth, killed by treatment with acetone followed by vacuum drying and finally resuspended in 10 mM HEPES. The extract was treated with 1M NaOH at 55° C. for 12 hr and neutralized with 1M HEPES (pH 7.4). The soluble fraction after centrifugation and filtration with 0.22 μm filter was applied to SUPEROSE 12 gel filtration column chromatography. Partial purification of NOD1-stimulatory molecules from E. coli and composition analyses. The amino acid composition of E. coli O55:B5 LPS was determined using AccQ·Tag amino acid analysis system (Waters, Milford, Mass.) after hydrolysis at 110° C. for 24 hr. […]

[2] = tested on: bone marrow-derived macrophages from nod1-deficient mice; experiment: Cytokine secretion assay (ELISA), bone marrow-derived macrophages from nod1-deficient mice; format: cell-based, mouse; conditions: 12 hr
Method: as §1
Reagents. LPS from S. typhimurium, intact and alkaline-detoxified LPS from E. coli O55:B5 as well as purified lipid A preparations of E. coli F583, MDP, DAP and dsRNA were obtained from Sigma-Aldrich (St. Louis, Mo.). PGN from S. aureus was from Fluka-Chemie (Buchs, Germany). Palmitoyl-Cys ((RS)-2,3-di(palmitoyloxy)-propyl)-Ala-Gly) (sBLP), was obtained from Bachem (Torrance, Calif.). The tetrameric form of the disaccharide dipeptide was described previously (Inohara et al., J. Biol. Chem. 278:5509 [2003]). iE-DAP and iQ-DAP, M3P and M4P were synthesized as described (Kitaura et al., J. Med. Chem. 25:335 [1982]) with small modification. Purification of PGN from B. subtilis 168 and C. flaccumfaciens with hydrolases, Cellosyl or recombinant AtlE (amidase domain) and the fractionation and purification of reduced B. subtilis PGN digested with Cellosyl were performed as previously described (Heilman et al., Mol. Microbiol. 24:1013 [1997]; Atrih et al., J. Bact. 181:3956 [1999]). Removal of proteins and reduction of LPS fraction. E. coli O55:B5 LPS (Sigma) was treated with proteinase K at 37° C. for 12 hr to digest contaminating proteins. To eliminate lipoproteins, LPS was subjected to modified phenol extraction with deoxycholate-containing phenol as described (Hirschfeld et al., J. Immunol. 165:618 [2000]). […] The amino acid composition of E. coli O55:B5 LPS was determined using AccQ·Tag amino acid analysis system (Waters, Milford, Mass.) after hydrolysis at 110° C. for 24 hr. […]

[3] = macrophages lacking NOD1, 100 ng/ml

Row | Substance | secretion of IL-6 [1] | secretion of TNF-α [1] | secretion of IL-6 [2, 3] | secretion of TNF-α [2, 3] | enhancement of the secretion of IL-6 induced by LPS ([1]; 100 ng/ml Salmonella typhimurium LPS) | enhancement of the secretion of IL-6 induced by LPS ([2]; nod1 −/− macrophages, 100 ng/ml Salmonella typhimurium LPS)
1 | MurNAc-L-Ala-γ-D-Gln [MDP] | induced the secretion | induced the secretion | responded | responded | – | –
2 | γ-D-glutamy-meso-diaminopimelic acid [iE-DAP] | induced the secretion | induced the secretion | – | – | enhanced the secretion of IL-6 induced by LPS | this effect was impaired
